{
  "source": "patent US20240041890A1",
  "about": "“ANTI-HAIR-LOSS COMPOSITION” (WELLA GERMANY GMBH, priority 2020, published 2024)",
  "key": {"[1]": {"test_system": "hair follicles in human full thickness scalp skin punches", "assay": "Microscopic hair cycle staging and hair cycle score in ex vivo cultured scalp skin", "type": "cell-based", "details": "for hair cycle score ± SEM: 100 = anagen, 200 = early catagen, 300 = mid catagen, 400 = late catagen, lower number = more hairs in anagen; for % of hair follicles in anagen phase / % of hair follicles in early catagen phase: two topical treatments (day 1 and 3), evaluated after 5 days of ex vivo culture", "procedure": "Human full thickness scalp skin punches (6 mm diameter) with hair from the occipital region were obtained from a donor. The dissected human punches were cultured at 37° C. with 5% CO2 in a minimal media of William's E media (Gibco, Life Technologies) supplemented with 10 ng/ml hydrocortisone (Sigma Aldrich), 10 μg/ml insulin (Sigma Aldrich) and 1% penicllin/streptomycin (Gibco) to make William's Complete Media (WCM) modified as previously described (Edelkamp et al., Molecular Dermatology 2020, Langan et al., Exp Dermatol 2015). After 24 h resting culture (day 0), two topical treatments were Performed (day 1 and 3). The medium was changed at day 3. Punches were embedded in OCT Compound (Optimal Cutting Temperature Compound) after 5 days (day 5) of ex vivo culture and cryosectioned (7 μm sections). The experimental groups for the topical treatments are outlined in Table 3.\nHair cycle staging and hair cycle score are perfomed at the end of the culture and can be determined according to several established macroscopic and microscopic paremeters (Langan et al., Exp Dermatol 2015; Oh et al., JID 2016).\nHair follicles are microscopically evaluated for the hair cycle staging using Masson-Fontana histochemistry and Ki-67/TUNEL immunostaining as previously described (Kloepper at al., Exp Dermatol 2010; Langan et al., Exp Dermatol 2015). For each experimental group, the percentage of hair follicles in each hair cycle phase was calculated and is shown below."}, "[2]": {"molecular_target": "T1, olfactory receptor OR2AT4 (Homo sapiens, UniProt A6NND4)", "T1 sequence (A6NND4 1-320)": "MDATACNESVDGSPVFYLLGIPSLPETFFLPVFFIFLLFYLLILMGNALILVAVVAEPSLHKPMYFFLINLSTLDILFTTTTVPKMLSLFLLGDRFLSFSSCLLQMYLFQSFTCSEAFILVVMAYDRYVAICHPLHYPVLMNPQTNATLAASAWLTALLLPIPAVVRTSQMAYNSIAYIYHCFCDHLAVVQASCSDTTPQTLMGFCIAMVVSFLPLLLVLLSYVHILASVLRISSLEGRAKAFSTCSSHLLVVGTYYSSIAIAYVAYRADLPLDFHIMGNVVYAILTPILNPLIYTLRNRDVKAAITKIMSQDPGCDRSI", "details": "OR2AT4 expressed in the epithelium of human hair follicles; cited from earlier work"}, "[3]": {"test_system": "human hair follicles", "details": "by decreasing apoptosis and increasing the production of growth factor IGF-1; cited from earlier work"}},
  "data": [
    {"smiles": "CC1=CCC(CCC(C)C(C)O)C1(C)C", "note": "(stereo not drawn) [#2 (Sand), 3-methyl-5-(2,2,3-trimethylcyclopent-3-en-1-yl)pentan-2-ol]", "values": [
      {"measurement": "hair cycle score ± SEM", "setting": "[1]", "value": "137.5 ± 12.5", "unit": "arbitrary units"},
      {"measurement": "effect on anagen (in words)", "setting": "[1]; topical application on ex vivo cultured scalp skin", "value": "prolongs anagen"},
      {"measurement": "% of hair follicles in anagen phase", "setting": "[1]", "value": 63, "unit": "%"},
      {"measurement": "% of hair follicles in early catagen phase", "setting": "[1]", "value": 38, "unit": "%"},
      {"measurement": "effect on the olfactory receptor OR2AT4", "setting": "[2]", "value": "stimulatory effect"},
      {"measurement": "effect on hair growth ex vivo", "setting": "[3]", "value": "prolongs hair growth ex vivo"}
    ]},
    {"smiles": "Nc1cc(N2CCCCC2)nc(N)[n+]1[O-]", "note": "[#5 Minox), Minoxidil]", "values": [
      {"measurement": "hair cycle score ± SEM", "setting": "[1]", "value": "123.1 ± 12.16", "unit": "arbitrary units"},
      {"measurement": "% of hair follicles in anagen phase", "setting": "[1]", "value": 77, "unit": "%"},
      {"measurement": "% of hair follicles in early catagen phase", "setting": "[1]", "value": 23, "unit": "%"}
    ]}
  ]
}
